Results from PMC8244818 (Journal of medicinal chemistry, 2021).

Experiments:
Plasmodium yoelii = assay type: in vivo; conditions: P. yoelii, CF1 mice, oral gavage in PEG-400, 5 mg/kg × 4 days
[1] = cited from earlier work
[2] = ref 34 (2), ref 35 (6); cited from earlier work

Row | Structure (SMILES) | in vivo %parasitemia reduction on day 5 at 5 mg/kg/4d (Plasmodium yoelii) | cytotoxicity activity [1] | antimicrobial activity [2]
1 | COC1=CC2=N/C1=C\NCC/C=C/CCCCCCCCc1ccc2[nH]1.Cl [(E/Z)-7, geometric isomers of Tambjamine MYP1] | ineffective |  | 
2 | CCCCCc1cc(/C=C2\N=C(c3ccc(Cc4ccc(O)cc4)[nH]3)C=C2OC)[nH]c1C.Cl [Compound 2, 4-((4’-Methoxy-5’-((5-methyl-4-pentyl-1H-pyrrol-2-yl)methylene)-1H,5’H-[2,2’-bipyrrol]-5-yl)methyl)phenol] | did not show efficacy | good | good
3 | CCCCc1cc(/C=C2\N=C(c3ccc(Cc4ccc(O)cc4)[nH]3)C=C2OC)[nH]c1C.Cl [Compound 3, 4-((5’-((4-Butyl-5-methyl-1H-pyrrol-2-yl)methylene)-4’-methoxy-1H,5’H-[2,2’-bipyrrol]-5-yl)methyl)phenol] | did not show efficacy |  | 
4 | COC1=CC(c2ccc[nH]2)=N/C1=C\c1cc(CCCCC(C)C)c(C)[nH]1.Cl [Compound 6, Isoheptylprodigiosin] |  |  | moderate
5 | C=CCCCCCCCCc1ccc(C2=N/C(=C\NCCC=C)C(OC)=C2)[nH]1.Cl [Compound 39, N-((5-(dec-9-en-1-yl)-4’-methoxy-1H,5’H-[2,2’-bipyrrol]-5’-ylidene)methyl)but-3-en-1-amine] | ineffective |  | 
